Laboratory results published in US20200085864A1, “Stannous Fluoride Sugar Alcohol Solid Solutions” (WhiteHill Life Sciences, LLC, priority 2018, published 2020).

Conditions: aqueous SnF2

[F][Sn][F] [Stannous fluoride]
Natural pH of stannous fluoride: about 3.2
